{"source": "patent US11572590B2", "about": "“Methods for evaluating tumor cell spheroids using 3D microfluidic cell culture device” (Dana-Farber Cancer Institute, Inc., priority 2017, dated 2023)", "experiment_in_all_cases": "SelectScreen Kinase Profiling, single point inhibition and IC50 for off-target kinases", "assay_type_in_all_cases": "biochemical", "key": {"off-target kinases [1]": {"target": "off-target kinases (Homo sapiens, UniProt Q96S53)", "sequence (Q96S53 whole entry)": "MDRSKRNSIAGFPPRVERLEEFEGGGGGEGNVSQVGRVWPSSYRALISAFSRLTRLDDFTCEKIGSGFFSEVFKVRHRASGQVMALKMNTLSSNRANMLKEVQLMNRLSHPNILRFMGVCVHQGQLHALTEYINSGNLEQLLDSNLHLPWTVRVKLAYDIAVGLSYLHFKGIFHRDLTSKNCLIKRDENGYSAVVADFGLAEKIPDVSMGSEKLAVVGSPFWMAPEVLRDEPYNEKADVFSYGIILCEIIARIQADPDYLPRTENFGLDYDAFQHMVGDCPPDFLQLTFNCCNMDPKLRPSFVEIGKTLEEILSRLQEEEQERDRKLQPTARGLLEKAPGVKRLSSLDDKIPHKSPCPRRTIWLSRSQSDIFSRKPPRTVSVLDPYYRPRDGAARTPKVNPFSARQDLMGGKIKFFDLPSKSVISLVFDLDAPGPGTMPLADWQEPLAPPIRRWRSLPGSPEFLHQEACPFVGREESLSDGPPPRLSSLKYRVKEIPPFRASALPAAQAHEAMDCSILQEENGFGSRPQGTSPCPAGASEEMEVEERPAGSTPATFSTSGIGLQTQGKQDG", "conditions": "TESK2, LanthaScreen Binding"}, "off-target kinases [2]": {"target": "off-target kinases (Homo sapiens, UniProt P10721, N822K)", "sequence (P10721 26-976 N822K)": "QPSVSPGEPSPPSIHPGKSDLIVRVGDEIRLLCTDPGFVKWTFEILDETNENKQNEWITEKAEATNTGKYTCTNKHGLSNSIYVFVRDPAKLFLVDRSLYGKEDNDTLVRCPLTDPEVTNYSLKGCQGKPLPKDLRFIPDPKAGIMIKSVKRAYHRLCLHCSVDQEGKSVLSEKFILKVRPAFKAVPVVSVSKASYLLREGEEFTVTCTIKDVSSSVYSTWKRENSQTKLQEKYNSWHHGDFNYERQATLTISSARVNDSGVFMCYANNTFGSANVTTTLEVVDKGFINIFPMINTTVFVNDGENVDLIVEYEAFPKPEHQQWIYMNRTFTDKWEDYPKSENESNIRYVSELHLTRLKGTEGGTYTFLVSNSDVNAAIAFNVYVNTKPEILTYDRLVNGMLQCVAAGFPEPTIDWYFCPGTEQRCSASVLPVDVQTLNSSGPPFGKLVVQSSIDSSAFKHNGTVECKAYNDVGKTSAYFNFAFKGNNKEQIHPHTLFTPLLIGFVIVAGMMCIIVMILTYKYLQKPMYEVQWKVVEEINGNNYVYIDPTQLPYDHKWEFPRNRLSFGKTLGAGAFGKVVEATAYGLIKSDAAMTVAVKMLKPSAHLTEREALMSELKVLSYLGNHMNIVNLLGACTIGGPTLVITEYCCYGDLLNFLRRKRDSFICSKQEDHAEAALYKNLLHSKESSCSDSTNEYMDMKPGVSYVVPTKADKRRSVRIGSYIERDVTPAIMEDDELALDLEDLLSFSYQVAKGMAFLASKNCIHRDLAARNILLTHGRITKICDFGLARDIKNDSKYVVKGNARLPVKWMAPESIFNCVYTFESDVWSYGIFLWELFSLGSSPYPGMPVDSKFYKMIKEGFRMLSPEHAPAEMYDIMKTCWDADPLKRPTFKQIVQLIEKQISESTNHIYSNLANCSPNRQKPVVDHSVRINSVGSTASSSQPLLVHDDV", "conditions": "KIT N822K, LanthaScreen Binding"}, "off-target kinases [3]": {"target": "off-target kinases (Homo sapiens, UniProt P07949, V804L)", "sequence (P07949 29-1114 V804L)": "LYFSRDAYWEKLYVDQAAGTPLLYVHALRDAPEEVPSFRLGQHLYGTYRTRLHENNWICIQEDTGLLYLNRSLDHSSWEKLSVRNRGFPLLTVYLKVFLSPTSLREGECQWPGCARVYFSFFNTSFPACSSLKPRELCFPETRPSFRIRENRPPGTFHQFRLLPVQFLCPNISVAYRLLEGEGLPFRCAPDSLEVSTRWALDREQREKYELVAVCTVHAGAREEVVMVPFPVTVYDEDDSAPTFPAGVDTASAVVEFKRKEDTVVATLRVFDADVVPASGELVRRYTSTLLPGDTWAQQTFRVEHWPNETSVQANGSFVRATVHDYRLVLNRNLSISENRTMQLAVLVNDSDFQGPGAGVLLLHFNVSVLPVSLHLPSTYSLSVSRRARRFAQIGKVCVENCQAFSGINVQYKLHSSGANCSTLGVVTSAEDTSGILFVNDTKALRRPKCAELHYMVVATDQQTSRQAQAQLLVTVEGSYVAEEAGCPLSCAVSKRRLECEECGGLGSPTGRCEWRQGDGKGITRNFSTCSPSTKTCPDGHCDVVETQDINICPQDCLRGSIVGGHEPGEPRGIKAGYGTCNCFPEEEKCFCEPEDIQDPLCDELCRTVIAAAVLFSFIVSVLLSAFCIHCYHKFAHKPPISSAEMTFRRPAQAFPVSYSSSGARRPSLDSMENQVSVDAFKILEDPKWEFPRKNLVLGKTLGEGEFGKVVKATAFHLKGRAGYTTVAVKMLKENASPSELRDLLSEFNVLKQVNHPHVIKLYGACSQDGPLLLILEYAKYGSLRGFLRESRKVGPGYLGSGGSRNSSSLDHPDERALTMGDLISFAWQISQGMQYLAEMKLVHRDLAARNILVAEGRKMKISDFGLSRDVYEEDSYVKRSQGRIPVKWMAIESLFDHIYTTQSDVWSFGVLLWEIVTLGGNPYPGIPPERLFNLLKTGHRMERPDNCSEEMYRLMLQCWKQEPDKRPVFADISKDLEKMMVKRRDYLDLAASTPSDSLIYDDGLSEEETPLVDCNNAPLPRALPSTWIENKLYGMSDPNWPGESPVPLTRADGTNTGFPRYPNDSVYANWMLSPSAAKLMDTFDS", "conditions": "RET V804L, ATP Km app, ZLYTE"}, "off-target kinases [4]": {"target": "off-target kinases (Homo sapiens, UniProt Q16816)", "sequence (Q16816 whole entry)": "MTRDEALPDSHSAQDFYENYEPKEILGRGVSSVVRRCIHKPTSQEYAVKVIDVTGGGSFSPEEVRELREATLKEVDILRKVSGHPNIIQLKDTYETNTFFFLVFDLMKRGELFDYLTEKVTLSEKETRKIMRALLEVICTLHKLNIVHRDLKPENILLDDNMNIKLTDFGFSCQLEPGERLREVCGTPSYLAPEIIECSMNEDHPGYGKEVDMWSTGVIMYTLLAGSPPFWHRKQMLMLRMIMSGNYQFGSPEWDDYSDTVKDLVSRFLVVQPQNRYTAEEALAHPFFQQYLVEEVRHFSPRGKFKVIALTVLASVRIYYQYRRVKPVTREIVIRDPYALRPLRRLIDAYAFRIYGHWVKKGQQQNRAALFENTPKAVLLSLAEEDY", "conditions": "PHKG1, ZLYTE, ATP Km app"}, "off-target kinases [5]": {"target": "T1, off-target kinases (Homo sapiens, UniProt O43781)", "T1 sequence (O43781 1-588)": "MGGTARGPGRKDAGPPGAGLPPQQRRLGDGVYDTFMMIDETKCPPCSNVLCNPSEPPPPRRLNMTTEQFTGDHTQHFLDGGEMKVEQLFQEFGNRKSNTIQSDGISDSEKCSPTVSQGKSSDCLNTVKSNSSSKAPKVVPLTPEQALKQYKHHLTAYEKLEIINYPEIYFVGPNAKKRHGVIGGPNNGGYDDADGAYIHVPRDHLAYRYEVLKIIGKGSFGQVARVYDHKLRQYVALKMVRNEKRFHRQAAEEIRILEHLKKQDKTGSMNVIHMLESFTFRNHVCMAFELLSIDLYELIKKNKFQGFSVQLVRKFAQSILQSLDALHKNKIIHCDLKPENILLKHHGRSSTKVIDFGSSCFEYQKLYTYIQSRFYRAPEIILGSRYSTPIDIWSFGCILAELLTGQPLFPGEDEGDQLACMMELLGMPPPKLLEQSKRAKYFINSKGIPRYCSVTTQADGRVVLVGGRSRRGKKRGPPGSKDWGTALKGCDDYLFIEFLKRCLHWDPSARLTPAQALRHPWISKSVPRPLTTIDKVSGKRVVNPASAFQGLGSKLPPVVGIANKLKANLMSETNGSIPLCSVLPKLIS", "conditions": "DYRK3, ZLYTE, ATP Km app"}, "off-target kinases [6]": {"target": "off-target kinases (Homo sapiens, UniProt P07948)", "sequence (P07948 whole entry)": "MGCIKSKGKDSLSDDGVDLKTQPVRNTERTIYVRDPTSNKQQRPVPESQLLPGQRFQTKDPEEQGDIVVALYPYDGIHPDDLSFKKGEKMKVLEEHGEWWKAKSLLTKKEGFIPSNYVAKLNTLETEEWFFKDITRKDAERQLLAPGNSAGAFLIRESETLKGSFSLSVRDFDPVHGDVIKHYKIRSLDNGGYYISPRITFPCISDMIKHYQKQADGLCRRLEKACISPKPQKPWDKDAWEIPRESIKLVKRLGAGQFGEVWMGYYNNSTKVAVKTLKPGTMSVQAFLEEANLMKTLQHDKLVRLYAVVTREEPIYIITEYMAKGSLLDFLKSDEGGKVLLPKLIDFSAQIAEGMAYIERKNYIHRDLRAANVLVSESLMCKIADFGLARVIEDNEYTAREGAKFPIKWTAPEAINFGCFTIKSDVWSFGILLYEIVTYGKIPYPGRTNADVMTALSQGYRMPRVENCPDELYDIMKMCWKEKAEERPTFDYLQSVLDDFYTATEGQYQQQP", "conditions": "LYN A, ATP Km app, ZLYTE"}, "off-target kinases [7]": {"target": "off-target kinases (Homo sapiens, UniProt P48736)", "conditions": "PIK3CG (p110 gamma), Adapta, ATP Km app"}, "off-target kinases [8]": {"target": "off-target kinases (Homo sapiens, UniProt Q15208)", "sequence (Q15208 whole entry)": "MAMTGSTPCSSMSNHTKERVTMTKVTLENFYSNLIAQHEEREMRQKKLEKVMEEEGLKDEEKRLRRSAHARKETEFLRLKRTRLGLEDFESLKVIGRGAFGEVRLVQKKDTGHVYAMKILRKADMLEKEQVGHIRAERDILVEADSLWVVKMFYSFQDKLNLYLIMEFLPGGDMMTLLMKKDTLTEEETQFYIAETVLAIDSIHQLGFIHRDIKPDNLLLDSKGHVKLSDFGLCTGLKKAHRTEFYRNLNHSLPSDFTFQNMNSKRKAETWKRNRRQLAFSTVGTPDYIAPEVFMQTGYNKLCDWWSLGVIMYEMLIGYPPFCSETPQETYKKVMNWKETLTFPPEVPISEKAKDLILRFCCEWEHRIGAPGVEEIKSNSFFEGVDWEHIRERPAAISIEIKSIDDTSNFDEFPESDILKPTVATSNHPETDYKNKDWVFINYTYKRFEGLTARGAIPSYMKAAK", "conditions": "STK38 (NDR), LanthaScreen Binding"}, "off-target kinases [9]": {"target": "off-target kinases (Homo sapiens, UniProt P23458)", "conditions": "JAK1, ZLYTE, ATP Km app"}, "off-target kinases [10]": {"target": "off-target kinases (Homo sapiens, UniProt Q14289)", "sequence (Q14289 whole entry)": "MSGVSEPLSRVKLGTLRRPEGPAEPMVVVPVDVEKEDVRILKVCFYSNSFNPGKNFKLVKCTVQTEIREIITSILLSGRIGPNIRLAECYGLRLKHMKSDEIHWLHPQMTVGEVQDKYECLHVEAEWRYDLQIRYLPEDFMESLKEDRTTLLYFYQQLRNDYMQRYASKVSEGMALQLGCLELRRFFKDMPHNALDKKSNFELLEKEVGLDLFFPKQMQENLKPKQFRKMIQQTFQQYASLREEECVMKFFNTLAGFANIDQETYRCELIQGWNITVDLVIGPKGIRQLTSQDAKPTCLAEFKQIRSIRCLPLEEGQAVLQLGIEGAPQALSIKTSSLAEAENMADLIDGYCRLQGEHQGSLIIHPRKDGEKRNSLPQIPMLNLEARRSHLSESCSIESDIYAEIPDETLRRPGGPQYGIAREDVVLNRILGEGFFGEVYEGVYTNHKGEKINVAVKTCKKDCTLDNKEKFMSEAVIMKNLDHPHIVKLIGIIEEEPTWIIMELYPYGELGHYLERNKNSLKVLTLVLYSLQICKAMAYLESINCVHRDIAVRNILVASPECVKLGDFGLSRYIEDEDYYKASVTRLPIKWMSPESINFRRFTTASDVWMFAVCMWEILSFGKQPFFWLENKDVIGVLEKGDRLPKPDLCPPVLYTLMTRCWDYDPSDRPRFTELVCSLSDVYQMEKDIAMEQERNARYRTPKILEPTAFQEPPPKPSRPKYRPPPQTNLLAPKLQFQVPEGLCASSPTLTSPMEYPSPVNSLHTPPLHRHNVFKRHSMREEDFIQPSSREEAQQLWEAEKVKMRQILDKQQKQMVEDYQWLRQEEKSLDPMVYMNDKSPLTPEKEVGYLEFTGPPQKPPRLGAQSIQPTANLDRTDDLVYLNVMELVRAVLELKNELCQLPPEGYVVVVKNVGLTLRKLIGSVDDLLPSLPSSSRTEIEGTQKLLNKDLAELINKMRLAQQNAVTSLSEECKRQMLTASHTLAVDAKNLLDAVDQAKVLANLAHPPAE", "conditions": "PTK2B (FAK2), ZLYTE, ATP Km app"}, "off-target kinases [11]": {"target": "off-target kinases (Homo sapiens, UniProt O60674)", "conditions": "ATP Km app, ZLYTE"}}, "note": "Like-named read-outs stand apart in the source and are kept apart here."}
{"smiles": "N#Cc1cc(-c2ncnc(Nc3ccc(N4CCN(C5COC5)CC4)cc3)n2)ccc1OC1CCOCC1", "note": "[Compound 1, 5-(4-((4-(4-(oxetan-3-yl)piperazin-1-yl)phenyl)amino)-1,3,5-triazin-2-yl)-2-((tetrahydro-2H-pyran-4-yl)oxy)benzonitrile]", "values": [{"measurement": "inhibition", "setting": "off-target kinases [1]; read-out: % Inhibition 1", "result": 14, "unit": "%"}, {"measurement": "inhibition", "setting": "off-target kinases [1]; read-out: % Inhibition 2", "result": -3, "unit": "%"}, {"measurement": "inhibition", "setting": "off-target kinases [1]; read-out: % Inhibition Avg", "result": 6, "unit": "%"}, {"measurement": "inhibition", "setting": "off-target kinases [2]; read-out: % Inhibition 1", "result": 66, "unit": "%"}, {"measurement": "inhibition", "setting": "off-target kinases [2]; read-out: % Inhibition 2", "result": 67, "unit": "%"}, {"measurement": "inhibition", "setting": "off-target kinases [2]; read-out: % Inhibition Avg", "result": 66, "unit": "%"}, {"measurement": "inhibition", "setting": "off-target kinases [3]; read-out: % Inhibition 1", "result": 71, "unit": "%"}, {"measurement": "inhibition", "setting": "off-target kinases [3]; read-out: % Inhibition 2", "result": 66, "unit": "%"}, {"measurement": "inhibition", "setting": "off-target kinases [3]; read-out: % Inhibition Avg", "result": 69, "unit": "%"}, {"measurement": "inhibition", "setting": "off-target kinases [4]; read-out: % Inhibition 1", "result": 39, "unit": "%"}, {"measurement": "inhibition", "setting": "off-target kinases [4]; read-out: % Inhibition 2", "result": 37, "unit": "%"}, {"measurement": "inhibition", "setting": "off-target kinases [4]; read-out: % Inhibition Avg", "result": 38, "unit": "%"}, {"measurement": "inhibition", "setting": "off-target kinases [5]; read-out: % Inhibition 1", "result": 26, "unit": "%"}, {"measurement": "inhibition", "setting": "off-target kinases [5]; read-out: % Inhibition 2", "result": 24, "unit": "%"}, {"measurement": "inhibition", "setting": "off-target kinases [5]; read-out: % Inhibition Avg", "result": 25, "unit": "%"}, {"measurement": "inhibition", "setting": "off-target kinases [6]; read-out: % Inhibition 1", "result": 48, "unit": "%"}, {"measurement": "inhibition", "setting": "off-target kinases [6]; read-out: % Inhibition 2", "result": 48, "unit": "%"}, {"measurement": "inhibition", "setting": "off-target kinases [6]; read-out: % Inhibition Avg", "result": 48, "unit": "%"}, {"measurement": "inhibition", "setting": "off-target kinases [7]; read-out: % Inhibition 1", "result": 11, "unit": "%"}, {"measurement": "inhibition", "setting": "off-target kinases [7]; read-out: % Inhibition 2", "result": 8, "unit": "%"}, {"measurement": "inhibition", "setting": "off-target kinases [7]; read-out: % Inhibition Avg", "result": 9, "unit": "%"}, {"measurement": "inhibition", "setting": "off-target kinases [8]; read-out: % Inhibition 1", "result": 51, "unit": "%"}, {"measurement": "inhibition", "setting": "off-target kinases [8]; read-out: % Inhibition 2", "result": 49, "unit": "%"}, {"measurement": "inhibition", "setting": "off-target kinases [8]; read-out: % Inhibition Avg", "result": 50, "unit": "%"}, {"measurement": "inhibition", "setting": "off-target kinases [9]; read-out: % Inhibition 1", "result": 11, "unit": "%"}, {"measurement": "inhibition", "setting": "off-target kinases [9]; read-out: % Inhibition 2", "result": 10, "unit": "%"}, {"measurement": "inhibition", "setting": "off-target kinases [9]; read-out: % Inhibition Avg", "result": 10, "unit": "%"}, {"measurement": "inhibition", "setting": "off-target kinases [10]; read-out: % Inhibition 1", "result": 8, "unit": "%"}, {"measurement": "inhibition", "setting": "off-target kinases [10]; read-out: % Inhibition 2", "result": 4, "unit": "%"}, {"measurement": "inhibition", "setting": "off-target kinases [10]; read-out: % Inhibition Avg", "result": 6, "unit": "%"}, {"measurement": "inhibition", "setting": "off-target kinases [11]; JAK2, read-out: % Inhibition 1", "result": 67, "unit": "%"}, {"measurement": "inhibition", "setting": "off-target kinases [11]; JAK2, read-out: % Inhibition 2", "result": 68, "unit": "%"}, {"measurement": "inhibition", "setting": "off-target kinases [11]; JAK2, read-out: % Inhibition Avg", "result": 67, "unit": "%"}, {"measurement": "inhibition", "setting": "off-target kinases [11]; JAK2 JH1 JH2, read-out: % Inhibition 1", "result": 46, "unit": "%"}, {"measurement": "inhibition", "setting": "off-target kinases [11]; JAK2 JH1 JH2, read-out: % Inhibition 2", "result": 47, "unit": "%"}, {"measurement": "inhibition", "setting": "off-target kinases [11]; JAK2 JH1 JH2, read-out: % Inhibition Avg", "result": 46, "unit": "%"}]}
